Reference: BindingDB's records for doi:10.1021/jm00017a004 (Centre De Recherche Pierre Fabre, 1995)

Target: Squalene monooxygenase (Sus scrofa)
Test: In vitro inhibitory activity against pig liver microsomal squalene epoxidase

Question: With `CCN(C/C=C/C#CC(C)(C)C)Cc1cccc(OC[Si](C)(C)c2ccccc2C(F)(F)F)c1` [((E)-6,6-Dimethyl-hept-2-en-4-ynyl)-(3-{[dimethyl-(2-trifluoromethyl-phenyl)-silanyl]-methoxy}-benzyl)-ethyl-amine] as the compound, how does the IC50 read?
Answer: 70 nM

Question: With `CCN(C/C=C/C#CC(C)(C)C)Cc1cccc(OC[Si](C)(C)c2ccc(C(N)=O)cc2)c1` [4-[(3-{[((E)-6,6-Dimethyl-hept-2-en-4-ynyl)-ethyl-amino]-methyl}-phenoxymethyl)-dimethyl-silanyl]-benzamide] as the compound, how does the IC50 read?
Answer: 5000 nM

Question: How did the IC50 turn out when `CCN(C/C=C/C#CC(C)(C)C)Cc1cccc(OC[Si](C)(C)c2cccc(C)c2)c1` [((E)-6,6-Dimethyl-hept-2-en-4-ynyl)-{3-[(dimethyl-m-tolyl-silanyl)-methoxy]-benzyl}-ethyl-amine] was run?
Answer: 3000 nM

Question: `CCN(C/C=C/C#CC(C)(C)C)Cc1cccc(OC[Si](C)(C)c2ccccc2-c2ccsc2)c1` [((E)-6,6-Dimethyl-hept-2-en-4-ynyl)-(3-{[dimethyl-(2-thiophen-3-yl-phenyl)-silanyl]-methoxy}-benzyl)-ethyl-amine] was tested. Which IC50 did it give?
Answer: 10000 nM

Question: For `CCN(C/C=C/C#CC(C)(C)C)Cc1cccc(OC[Si](C)(C)c2ccc(OC)cc2)c1` [((E)-6,6-Dimethyl-hept-2-en-4-ynyl)-ethyl-(3-{[(4-methoxy-phenyl)-dimethyl-silanyl]-methoxy}-benzyl)-amine], which IC50 is on record?
Answer: 870 nM

Question: How did the IC50 turn out when `C=Cc1ccc([Si](C)(C)COc2cccc(CN(CC)C/C=C/C#CC(C)(C)C)c2)cc1` [((E)-6,6-Dimethyl-hept-2-en-4-ynyl)-(3-{[dimethyl-(4-vinyl-phenyl)-silanyl]-methoxy}-benzyl)-ethyl-amine] was run?
Answer: 70 nM

Question: How did the IC50 turn out when `CCN(CC#CC#CC(C)(C)OC)Cc1cccc(OC[Si](C)(C)c2ccccc2C)c1` [{3-[(Dimethyl-o-tolyl-silanyl)-methoxy]-benzyl}-ethyl-(6-methoxy-6-methyl-hepta-2,4-diynyl)-amine] was run?
Answer: 70 nM

Question: Which IC50 does the source give for `CCN(C/C=C/C#CC(C)(C)C)Cc1cccc(OC[Si](C)(C)c2ccc(Cl)cc2)c1` [(3-{[(4-Chloro-phenyl)-dimethyl-silanyl]-methoxy}-benzyl)-((E)-6,6-dimethyl-hept-2-en-4-ynyl)-ethyl-amine] here?
Answer: 400 nM

Question: `CCN(C/C=C/C#CC(C)(C)C)Cc1cccc(OC[Si](C)(C)c2ccc(C)cc2)c1` [((E)-6,6-Dimethyl-hept-2-en-4-ynyl)-{3-[(dimethyl-p-tolyl-silanyl)-methoxy]-benzyl}-ethyl-amine] was tested. Which IC50 did it give?
Answer: 120 nM

Question: Which IC50 does the source give for `CCN(C/C=C/C#CC(C)(C)C)Cc1cccc(OC[Si](C)(C)c2ccc(C(=O)C(F)(F)F)cc2)c1` [1-{4-[(3-{[((E)-6,6-Dimethyl-hept-2-en-4-ynyl)-ethyl-amino]-methyl}-phenoxymethyl)-dimethyl-silanyl]-phenyl}-2,2,2-trifluoro-ethanone] here?
Answer: 5000 nM

Question: Which IC50 does the source give for `CCN(C/C=C/C#CC(C)(C)C)Cc1cccc(OC[Si](C)(C)CCc2ccccc2)c1` [((E)-6,6-Dimethyl-hept-2-en-4-ynyl)-{3-[(dimethyl-phenethyl-silanyl)-methoxy]-benzyl}-ethyl-amine] here?
Answer: > 10000 nM

Question: `CCN(C/C=C/C#CC(C)(C)C)Cc1cccc(OC[Si](C)(C)c2ccc(F)cc2)c1` [((E)-6,6-Dimethyl-hept-2-en-4-ynyl)-ethyl-(3-{[(4-fluoro-phenyl)-dimethyl-silanyl]-methoxy}-benzyl)-amine] was tested. Which IC50 did it give?
Answer: 60 nM

Question: For `CCN(C/C=C/C#CC(C)(C)C)Cc1cccc(OC[Si](C)(C)C2CCCCC2)c1` [{3-[(Cyclohexyl-dimethyl-silanyl)-methoxy]-benzyl}-((E)-6,6-dimethyl-hept-2-en-4-ynyl)-ethyl-amine], which IC50 is on record?
Answer: 20000 nM

Question: Which IC50 does the source give for `CCN(C/C=C/C#CC(C)(C)C)Cc1cccc(OC[Si](C)(C)c2ccc(S)cc2)c1` [4-[(3-{[((E)-6,6-Dimethyl-hept-2-en-4-ynyl)-ethyl-amino]-methyl}-phenoxymethyl)-dimethyl-silanyl]-benzenethiol] here?
Answer: 8000 nM

Question: Which IC50 does the source give for `CCN(C/C=C/C#CC(C)(C)C)Cc1cccc(OC[Si](C)(C)c2ccc(Br)cc2)c1` [(3-{[(4-Bromo-phenyl)-dimethyl-silanyl]-methoxy}-benzyl)-((E)-6,6-dimethyl-hept-2-en-4-ynyl)-ethyl-amine] here?
Answer: 210 nM

Question: Which IC50 does the source give for `CCN(C/C=C/C#CC(C)(C)C)Cc1cccc(OC[Si](C)(C)Cc2ccccc2)c1` [{3-[(Benzyl-dimethyl-silanyl)-methoxy]-benzyl}-((E)-6,6-dimethyl-hept-2-en-4-ynyl)-ethyl-amine] here?
Answer: 130 nM

Question: With `CCN(C/C=C/C#CC(C)(C)C)Cc1cccc(OC[Si](C)(C)c2ccc(O)cc2)c1` [4-[(3-{[((E)-6,6-Dimethyl-hept-2-en-4-ynyl)-ethyl-amino]-methyl}-phenoxymethyl)-dimethyl-silanyl]-phenol] as the compound, how does the IC50 read?
Answer: 8000 nM

Question: `CCN(C/C=C/C#CC(C)(C)C)Cc1cccc(OC[Si](C)(C)c2ccc(C=O)cc2)c1` [4-[(3-{[((E)-6,6-Dimethyl-hept-2-en-4-ynyl)-ethyl-amino]-methyl}-phenoxymethyl)-dimethyl-silanyl]-benzaldehyde] was tested. Which IC50 did it give?
Answer: 100 nM
